Consider five compounds from publication PMC4197335, “Cancer-Selective Targeting of the NF-κB Survival Pathway with GADD45β/MKK7 Inhibitors” (Cancer Cell, 2014).

Each structure is given as a SMILES string. Read-outs that look alike come from different tables or passages of the source. Where a SMILES comes first, the peptide text is derived from it. A value given as a limit tells only on which side of the number the result lay.

The nature of one series: aqueous solubility. The series is classed as physicochemical.
A further series has as its target T1, GADD45β/MKK7 complex (Homo sapiens, UniProt O14733).
T1 construct: Full-length human (h)MKK7 was expressed as a protein fused to an N-terminal GST tag (GST-MKK7); made in house
T1 sequence (O14733 1-419): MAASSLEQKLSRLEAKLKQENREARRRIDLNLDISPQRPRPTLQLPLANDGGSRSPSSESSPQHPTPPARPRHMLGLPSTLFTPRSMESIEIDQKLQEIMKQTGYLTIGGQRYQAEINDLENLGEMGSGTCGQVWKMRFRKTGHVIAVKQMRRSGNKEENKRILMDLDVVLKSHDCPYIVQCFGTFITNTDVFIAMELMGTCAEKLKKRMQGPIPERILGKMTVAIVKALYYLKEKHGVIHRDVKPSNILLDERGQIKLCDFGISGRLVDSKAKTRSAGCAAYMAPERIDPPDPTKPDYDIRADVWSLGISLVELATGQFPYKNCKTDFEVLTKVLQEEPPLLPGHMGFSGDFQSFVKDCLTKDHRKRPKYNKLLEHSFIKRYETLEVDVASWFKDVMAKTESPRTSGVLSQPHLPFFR
Nature of the series: ELISA GADD45β/MKK7 competition assay. The class given is binding. To be noted: for inhibition at 0.01 µM: peptide at 10 nM. From the text: (§1) Additional details are provided in Supplemental Experimental Procedures.
(1:1,000) and the HRP chromogenic substrate, o -phenylenediamine (OPD). GST -coated wells wer e […]
The ELISA competition screen used f or the isolation of antagonists of the GADD45β /MKK7 […]
The library deconvolution strategy used for this screen was described previously […]
General information about this type of screens can be found elsewhere […]
Values were expressed as the percentage of inhibition of His6-hGADD45β binding to GST-hMKK7 relative to the binding measured in the absence of […]
Dose-response, ELISA GADD45β /MKK7 competition assays were carried out under similar […]
As part of the SAR analysis and lead optimization process, where appropriate, competitors were tested at a concentration up to 100 nM. In order to determine their stability in biolog ical f luids , peptides were incubated at the concentration of 10 µM in […]
calculated using at least 7 concentrations of peptide and def ined as the mean concentration of peptide […]
the absence of competitor. W here indicated, values were expressed as the percentage of inhibition of His 6 -hGADD45β binding to GST-hMKK7 relative to the binding measured in the absence of competitor.
GST was used as a control in all the experiments. […]
tetrapeptide used as negative control in some of the ELISA and cellular assays was as f ollows: z -DNC, z-T yr -Asp-His-Gln-NH 2 . […]
On the technique in general: ELISA stands for enzyme-linked immunosorbent assay.

Another series concerns KMS-12 MM cells. The series can be described thus: [3H]thymidine incorporation. The class given is cell-based. To be noted: Homo sapiens, single agent at 48 hr. On the procedure:
as §1
Cell Proliferation, Cell Death, and Apoptosis Assays
W allac Trilux Microbeta 3 β -counter (Perk inElmer). Values were expressed as the percentage of the […]
respective untreated cultures. […]
splitting them as necessary during the assays. […]
previously (Riccardi and Nicoletti, 2006).
Cells were then f ixed in 70% ice- cold ethanol for 16 hr, washed in PBS, and treated with ribonuclease A (50 μg/mL) f or 30 min at room temperature. Samples were f inally stained with PI (50 µg/mL) in 0.1% sodium citrate buffer for 2 to 4 hr at 4°C in the dark , and data were acquired using a FACSCalibur automated system (Becton Dick inson) and analyzed with FlowJo.
The viability of primary CD138 + cells f rom patients was assessed using trypan blue exclusion assays (Mauro et al., 2011; Arnold et al., 2008), perf ormed as described above. Cells were seeded […]
Cell viability in the treated cultures was expressed as the percentage of cell survival relative to the survival observed in the respective untreated cultures, represented as 100%. […]
The activities of DTP3 and bortezomib in the U266 and KMS-12 myeloma cell lines, both as single agents and in combination, were determined using [3H]thymidine incorporation assays, performed as described above in “Cell Prolif eration, Cell Death, and Apoptosis Assays”. […]
Background: Dividing cells build labelled thymidine or BrdU into new DNA.

The test system of series [1] is U266 MM cells. The series can be described thus: cells. To be noted: Homo sapiens, U-266, 48 h.
Series [2] concerns human mesenchymal stem cells (MSCs). The series can be described thus: cells. To be noted: Homo sapiens, Mesenchymal stem cells, 48 h, read-out: IC50 (normal; MCSs).
Text: as §1
(§2) automated system (Becton Dick inson) and analyzed with FlowJo.

In series [3] the test system is CD138+ cells from MM patients. Nature of the series: cells. To be noted: Homo sapiens, 48 h, read-out: IC50 (MM; PCs (n = 8)).
Text: as §1, §2

For another series, the system named is human PBMCs. Nature of the series: cells. To be noted: Homo sapiens, PBMC, 48 h, read-out: IC50 (normal; PBMCs).
Text: as §1, §2

In series [4] the test system is CD138+ cells from WM patients. Nature of the series: cells. To be noted: Homo sapiens, 48 h, read-out: IC50 (WM; PCs (n= 2)).
Text: as §1, §2

The subject of series [5] is mouse lymph node (LN) cells. The series can be described thus: cells. To be noted: Mus musculus, 48 h, read-out: IC50 (normal; lymph node cells).
Text: as §1, §2

The next series relates to human BMSCs. The series can be described thus: cells. To be noted: Homo sapiens, BMSC, 48 h, read-out: IC50 (normal; BMSCs).
Text: as §1, §2

A further series relates to mouse splenocytes. The series can be described thus: cells. To be noted: Mus musculus, Splenocyte, 48 h, read-out: IC50 (normal; splenocytes).
Text: as §1, §2

The test system of series [6] is U266 MM cells. To be noted: read-out: IC50 (U266 cells); Table S3; day 6; [3H]thymidine incorporation or trypan blue exclusion.
Where [7] appears, read: Table S3, read-out: % inhibition (ELISA).
[8] abbreviates: Table S3, read-out: IC50 (ELISA).

For the compound `CC(=O)N[C@@H](Cc1c[nH]c2ccccc12)C(=O)N[C@@H](CC(=O)O)C(=O)N[C@@H](CCCNC(=N)N)C(=O)N[C@@H](Cc1c[nH]c2ccccc12)C(N)=O` [Ac-WDRW-NH2] (Ac-WDRW-NH2), the aqueous solubility result in “aqueous solubility” was “low”. In addition, the inhibition – broadly, the change of the read-out against control, counted positive when it falls – at 0.042 µM on GADD45β/MKK7 complex (Table S2, peptide at 42 nM, read-out: % inhibition (ELISA)) is 93%. Moreover, the IC50 on GADD45β/MKK7 complex (Table S4, read-out: IC50s (ELISA)) is less than 42 nM.

For `CC(C)C[C@H](NC(=O)[C@H](Cc1ccccc1)NC(=O)c1cnccn1)B(O)O` [Bortezomib, reference compound], the IC50 in the series with KMS-12 MM cells turned out to be 6 nM; in the series with U266 MM cells [1], 6 nM; in series [2] it was 79.4 nM; in series [3], 8.7 ± 2.1 nM; in the series on human PBMCs it was 63.1 nM; in [4] it was 3.38 ± 2 nM. Besides, the IC50 in series [5] came out at 91.1 nM; in the series with human BMSCs, 80 nM; in the series with mouse splenocytes it was 80 nM.

`CCCCCCCCCCCCCC(=O)N[C@H](Cc1ccc(O)cc1)C(=O)N[C@H](CC(=O)O)C(=O)N[C@H](Cc1c[nH]cn1)C(=O)N[C@H](Cc1ccccc1)C(N)=O` [Myr-YDHF-NH2]: the figures for the IC50 with U266 MM cells [6] and on GADD45β/MKK7 complex (setting [8]) were more than 10000 nM and more than 10 nM, respectively. The inhibition at 0.01 µM at GADD45β/MKK7 complex (setting [7]) turned out to be 26%.

Consider `CCCCCCCCCCCCCC(=O)N[C@H](Cc1ccc(O)cc1)C(=O)N[C@H](CC(=O)O)C(=O)N[C@H](Cc1c[nH]cn1)C(=O)N[C@H](CCC(N)=O)C(N)=O` [Myr-YDHQ-NH2], for which the IC50 was more than 10000 nM in the series on U266 MM cells [6] and more than 10 nM on GADD45β/MKK7 complex (setting [8]). In addition, the inhibition at 0.01 µM at GADD45β/MKK7 complex (setting [7]) stood at 28%.

With `CCCCCCCCCCCCCC(=O)N[C@H](Cc1ccc(O)cc1)C(=O)N[C@H](CCC(=O)O)C(=O)N[C@H](CCCNC(=N)N)C(=O)N[C@H](Cc1ccccc1)C(N)=O` [Myr-YERF-NH2], the IC50 was more than 10000 nM with U266 MM cells [6] and more than 10 nM on GADD45β/MKK7 complex (setting [8]). For the same compound, on GADD45β/MKK7 complex (setting [7]), the inhibition at 0.01 µM amounted to 37%.
